The source of these data is ChEMBL document CHEMBL1201862, “PubChem BioAssay data set” (2004).

Holding throughout (assay): NCI tumour cell line growth inhibition, 48 h
Assay [1] deals with UACC-257.
For assay [2], the system named is SK-MEL-2.
Assay [3] has as its system U-251.
Assay [4] relates to HCT-116.
The test system of assay [5] is SF-539.
Assay [6] has as its system NCI-H522.
For assay [7], the system named is SN12C.
For assay [8], the system named is Malme-3M.
The test system of assay [9] is UO-31.
Assay [10] has as its system NCI-H226.
In assay [11] the test system is SF-295.
In assay [12] the test system is SW-620.
In assay [13] the test system is SNB-19.
In assay [14] the test system is OVCAR-5.
The test system of assay [15] is HL-60.
Assay [16] relates to COLO 205.
Assay [17] has as its system NCI-H460.
The test system of assay [18] is K562.

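Test compounds were applied to cells in 96-well plates for 48 hours at 5 doses. GI50 marks 50% less growth.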 Activity calls are given as the source filed them. No stated cut-off is given here; in the data, active = GI50 up to about 1.1 µM and inactive = higher. Some results are limits rather than exact numbers.

On to `CN(C)CCNC(=O)c1cccc2ccc(-c3ccc(-c4ccccc4)cc3)nc12`, for which the GI50 is 1.86 µM (inactive) in [1]; 18.3 µM (inactive) in assay [2]; 2.14 µM (inactive) in [3]; 1.72 µM (inactive) in assay [4]; 1.8 µM (inactive) in [5]; 1.88 µM (inactive) in assay [6]. Besides, the GI50 in [7] was 6.59 µM (inactive); in assay [8], 1.97 µM (inactive); in assay [9], 11.7 µM (inactive); in assay [10], 13.1 µM (inactive); in [11], 2.21 µM (inactive); in assay [12] it was 2.11 µM (inactive). Moreover, the GI50 in [13] is 11.4 µM (inactive); in assay [14] it was 3.92 µM (inactive); in assay [15], 1.93 µM (inactive); in assay [16], 1.6 µM (inactive); in assay [17] it was 1.61 µM (inactive); in assay [18], 2.13 µM (inactive).

Turning to `O=C1C=CC=CC2CC=C[C@@H](O)C12` (stereo not given in full), the GI50 was 14 µM (inactive) in assay [1]; 22.1 µM (inactive) in assay [2]; > 10 µM (inactive) in assay [3]; 13.2 µM (inactive) in assay [4]; 24.5 µM (inactive) in [5]; 13.7 µM (inactive) in assay [6]. The GI50 was 22.4 µM (inactive) in assay [7]; 21.3 µM (inactive) in assay [8]; 16.4 µM (inactive) in [9]; 20.7 µM (inactive) in assay [11]; 10.5 µM (inactive) in [12]; 22.9 µM (inactive) in assay [13]. For the same compound, the GI50 in assay [14] is 30.5 µM (inactive); in assay [15] it was 15.5 µM (inactive); in [16], 19.6 µM (inactive); in assay [17] it was 18.4 µM (inactive); in [18], 26.5 µM (inactive).

`COc1cccc2c1[C@H]1OC(=O)NC1CCCCC2` (stereo not given in full): the GI50 in [1], in assay [2], in assay [3], in assay [4], in assay [5] and in [6] was > 100 µM (inactive) throughout. For the same compound, the GI50 in [7], in assay [8], in assay [9], in [10], in assay [11] and in assay [12] was > 100 µM (inactive) in each case. Moreover, the GI50 in assay [13], in assay [14], in assay [15], in [16], in [17] and in assay [18] was > 100 µM (inactive) each time.

Take `O=C1CCN2C(=O)CCN12`: the GI50 in [1], in assay [2], in assay [3], in assay [4], in assay [6] and in assay [7] was > 100 µM (inactive) in each case. Besides, the GI50 in [8], in assay [9], in assay [10], in assay [11], in [12] and in assay [13] was > 100 µM (inactive) in each case. In addition, the GI50 in assay [14], in [15], in assay [16], in assay [17] and in assay [18] was > 100 µM (inactive) in each case.

Regarding `CC(=O)NNc1nc(C)c(C(=O)/C=C/c2ccc(Cl)cc2)s1`, the GI50 in [1], in assay [2], in [3], in assay [5], in assay [6] and in assay [8] was > 100 µM (inactive) in each case. The GI50 in assay [9], in assay [11], in assay [12], in [13], in assay [14] and in assay [15] was > 100 µM (inactive) each time. Further, the GI50 in assay [16], in assay [17] and in assay [18] was > 100 µM (inactive) throughout.

With `CN(C)CCNC(=O)c1cccc2c(Nc3ccc(S(=O)(=O)N=C(N)N)cc3)c3ccccc3nc12`, the GI50 in [2] was 19.2 µM (inactive); in assay [3], 8.36 µM (inactive); in assay [4], 25.8 µM (inactive); in assay [5], 11.3 µM (inactive); in [6], 3.97 µM (inactive); in assay [7], 5.15 µM (inactive). The GI50 in assay [9] was 10 µM (inactive); in [10], 2.19 µM (inactive); in assay [11], 17.3 µM (inactive); in assay [12], 7.23 µM (inactive); in assay [13], 3.37 µM (inactive); in [14], 28.4 µM (inactive). Also, the GI50 in assay [15] was 0.684 µM (active); in assay [16], 9.04 µM (inactive); in assay [17] it was 3.17 µM (inactive); in [18] it was 11.9 µM (inactive).

As for `CN(C)CC1CCCC(CN(C)C)C1=NOC(=O)c1ccccc1` (stereo not given), the GI50 in [1], in assay [2], in [3], in [4], in [5] and in [6] was > 100 µM (inactive) each time. In addition, the GI50 in [7], in [8], in assay [9], in assay [10], in [11] and in assay [12] was > 100 µM (inactive) throughout. Moreover, the GI50 in assay [13], in [14], in assay [15], in assay [16], in [17] and in assay [18] was > 100 µM (inactive) throughout.

As for `CN(CCN(C)C(=O)CCOS(C)(=O)=O)C(=O)CCOS(C)(=O)=O`, the GI50 in assay [1] was > 100 µM (inactive); in assay [2], > 100 µM (inactive); in assay [3], > 100 µM (inactive); in assay [4], > 100 µM (inactive); in [5], 44.1 µM (inactive); in assay [6], > 100 µM (inactive). The GI50 in assay [7], in [8], in assay [10], in [11], in [12] and in [13] was > 100 µM (inactive) in each case. In addition, the GI50 in assay [14] was > 100 µM (inactive); in assay [15], 30.9 µM (inactive); in assay [16], > 100 µM (inactive); in assay [17], 19.5 µM (inactive); in assay [18], > 100 µM (inactive).

As for `COc1ccc2c(CCNC(C)=O)c(C(C)=O)[nH]c2c1`, the GI50 in assay [1], in [2], in assay [3], in assay [4], in assay [5] and in assay [6] was > 100 µM (inactive) throughout. The GI50 in assay [7] is > 100 µM (inactive); in assay [9] it was > 100 µM (inactive); in [10], 71.4 µM (inactive); in assay [11], > 100 µM (inactive); in assay [12] it was > 100 µM (inactive); in assay [13], > 100 µM (inactive). For the same compound, the GI50 in assay [14], in assay [15], in [16], in assay [17] and in [18] was > 100 µM (inactive) in each case.

Regarding `CSc1nc2[nH]c(=O)c(C)nc2c(=O)[nH]1`, the GI50 in assay [1], in [2], in [3], in [4], in [6] and in assay [7] was > 100 µM (inactive) in each case. Also, the GI50 in assay [8], in assay [9], in [11], in assay [12], in assay [13] and in assay [14] was > 100 µM (inactive) each time. Also, the GI50 in assay [15], in assay [16], in [17] and in assay [18] was > 100 µM (inactive) each time.

With `O=C1Nc2ccccc2/C1=N/NC(=O)c1ccccc1O`, the GI50 was 44 µM (inactive) in assay [1]; 23 µM (inactive) in assay [2]; 23.2 µM (inactive) in assay [3]; 36.8 µM (inactive) in [4]; 41.4 µM (inactive) in assay [5]; 39.7 µM (inactive) in assay [6]. In addition, the GI50 in assay [7] is 35.2 µM (inactive); in [8], 35.1 µM (inactive); in assay [9], 28.2 µM (inactive); in assay [10] it was 33.2 µM (inactive); in assay [11] it was 27.9 µM (inactive); in assay [12], 46.8 µM (inactive). The GI50 in [13] was 62.2 µM (inactive); in [14] it was > 100 µM (inactive); in assay [15], 27.7 µM (inactive); in [16] it was > 100 µM (inactive); in assay [17] it was 34.8 µM (inactive); in [18], 40.9 µM (inactive).

Consider `CCOC(=O)N1C(=O)C2C3C=CC(C2C1=O)C1C2C(=O)N(C(=O)OCC)C(=O)C2C31` (stereo not given), for which the GI50 is > 100 µM (inactive) in assay [1]; > 100 µM (inactive) in assay [2]; > 68.1 µM (inactive) in [3]; > 39.5 µM (inactive) in assay [4]; > 100 µM (inactive) in assay [5]; > 100 µM (inactive) in assay [6]. In addition, the GI50 in assay [7] is > 100 µM (inactive); in assay [8], > 100 µM (inactive); in assay [9], > 100 µM (inactive); in [10], > 100 µM (inactive); in assay [11], > 100 µM (inactive); in assay [12], > 41 µM (inactive). Besides, the GI50 in assay [13] is > 100 µM (inactive); in [14] it was > 100 µM (inactive); in assay [15], 20.3 µM (inactive); in assay [16], 98.9 µM (inactive); in [17], > 42.7 µM (inactive); in assay [18], > 100 µM (inactive).
